Assays:
[1] = physchem; assay type: physicochemical; details: for log P: pH 2.3
Experimental: The stated log P values were determined in accordance with EEC Directive 79/831 Annex V.A8 by HPLC (High Performance Liquid Chromatography) using a reversed-phase column (C 18). Temperature: 43° C. • (a) Mobile phases for the determination in the acidic range: 0.1% aqueous phosphoric acid, acetonitrile; linear gradient from 10% acetonitrile to 90% acetonitrile. • (b) Mobile phases for the determination in the neutral range: 0.01 molar aqueous phosphate buffer solution, acetonitrile; linear gradient from 10% acetonitrile to 90% acetonitrile.
Calibration was carried out using unbranched alkan-2-ones (of 3 to 16 carbon atoms) with known log P values (determination of the log P values by the retention times using linear interpolation between two successive alkanones).

[2] = system: larvae of the mustard beetle (Phaedon cochleariae); assay: Phaedon larvae test; assay type: in vivo; details: cabbage leaves dipped
Experimental: (§1) Phaedon Larvae Test Solvent: 7 parts by weight of dimethylformamide Emulsifier: 2 parts by weight of alkylaryl polyglycol ether To produce a suitable preparation of active compound, 1 part by weight of active compound is mixed with the stated amounts of solvent and emulsifier, and the concentrate is diluted with emulsifier-containing water to the desired concentration. Cabbage leaves (Brassica oleracea) are treated by being dipped into the preparation of active compound of the desired concentration and are populated with larvae of the mustard beetle (Phaedon cochleariae) while the leaves are still moist. After the desired period of time, the kill in % is determined. 100% means that all beetle larvae have been killed; 0% means that none of the beetle larvae have been killed.

[3] = system: green peach aphid (Myzus persicae); assay: Myzus test; assay type: in vivo; details: 500 ppm, cabbage leaves dipped
Experimental: as §1, with “Myzus” for “Phaedon Larvae”, “oleracea) which are heavily infested by the green peach aphid (Myzus persicae)” for “oleracea)”, “concentration.” for “concentration and are populated with larvae of the mustard beetle (Phaedon cochleariae) while the leaves are still moist.”, “aphids” for “beetle larvae”

[4] = system: caterpillars of the armyworm (Spodoptera frugiperda); assay: Spodoptera frugiperda test; assay type: in vivo; details: cabbage leaves dipped
Experimental: as §1, with “Spodoptera frugiperda” for “Phaedon Larvae”, “caterpillars” for “larvae”, “armyworm (Spodoptera frugiperda)” for “mustard beetle (Phaedon cochleariae)”, “caterpillars” for “beetle larvae”

[5] = system: greenhouse red spider mite (Tetranychus urticae); assay: Tetranychus test (OP-resistent/dip treatment); assay type: in vivo; details: 100 ppm, bean plants dipped
Experimental: Tetranychus Test (OP-Resistent/Dip Treatment)
Solvent: 7 parts by weight of dimethylformamide
Emulsifier: 2 parts by weight of alkylaryl polyglycol ether
To produce a suitable preparation of active compound, 1 part by weight of active compound is mixed with the stated amounts of solvent and emulsifier, and the concentrate is diluted with emulsifier-containing water to the desired concentration.
Bean plants (Phaseolus vulgaris) which are heavily infested by all stages of the greenhouse red spider mite (Tetranychus urticae) are dipped into a preparation of active compound of the desired concentration.
After the desired period of time, the effect in % is determined. 100% means that all spider mites have been killed; 0% means that none of the spider mites have been killed.

[6] = system: Alopecurus; assay: Post-emergence test (greenhouse); assay type: in vivo; details: 250 g ai/ha, after three weeks
Experimental: (§2) Solvent: 5 parts by weight of acetone
(§3) Emulsifier: 1 part by weight of alkylaryl polyglycol ether
(§4) To produce a suitable preparation of active compound, 1 part by weight of active compound is mixed with the stated amount of solvent, the stated amount of emulsifier is added and the concentrate is diluted with water to the desired concentration.
(§5) Test plants of a height of 5-15 cm are sprayed with the preparation of active compound such that the particular amounts of active compound desired are applied per unit area. The concentration of the spray liquor is chosen such that the particular amounts of active compound desired are applied in 1000 l of water/ha.
(§6) After three weeks, the degree of damage to the plants is rated in % damage in comparison to the development of the untreated control.
(§7) The figures denote: • 0%=no effect (like untreated control) • 100%=total destruction

[7] = system: Avena fatua; assay: Post-emergence test (greenhouse); assay type: in vivo; details: 250 g ai/ha, after three weeks
Experimental: as §2, §3, §4, §5, §6, §7

[8] = system: Echinochloa; assay: Post-emergence test (greenhouse); assay type: in vivo; details: 250 g ai/ha, after three weeks
Experimental: as §2, §3, §4, §5, §6, §7

[9] = system: Setaria; assay: Post-emergence test (greenhouse); assay type: in vivo; details: 250 g ai/ha, after three weeks
Experimental: as §2, §3, §4, §5, §6, §7

[10] = system: caterpillars of the diamondback moths (Plutella xylostella); assay: Plutella test; assay type: in vivo; details: 500 ppm, cabbage leaves dipped
Experimental: as §1, with “Plutella” for “Phaedon Larvae”, “caterpillars” for “larvae”, “diamondback moths (Plutella xylostella)” for “mustard beetle (Phaedon cochleariae)”, “caterpillars” for “beetle larvae”

[11] = system: caterpillars of the armyworm (Spodoptera exigua); assay: Spodoptera exigua test; assay type: in vivo; details: 500 ppm, cabbage leaves dipped
Experimental: as §1, with “Spodoptera exigua” for “Phaedon Larvae”, “caterpillars” for “larvae”, “armyworm (Spodoptera exigua)” for “mustard beetle (Phaedon cochleariae)”, “caterpillars” for “beetle larvae”

[12] = system: Sugar beet; assay: Post-emergence test (greenhouse); assay type: in vivo; details: 250 g ai/ha, after three weeks
Experimental: as §2, §3, §4, §5, §6, §7

[13] = system: Plasmopara viticola; assay: Plasmopara test (grapevine)/protective; assay type: in vivo; details: protective, 100 g/ha, evaluation 6 days after inoculation
Experimental: Plasmopara Test (Grapevine)/Protective Solvents: 24.5 parts by weight of acetone • 24.5 parts by weight of dimethylacetamide Emulsifier: 1.0 part by weight of alkylaryl polyglycol ether To produce a suitable preparation of active compound, 1 part by weight of active compound is mixed with the stated amounts of solvent and emulsifier, and the concentrate is diluted with water to the desired concentration. To test for protective activity, young plants are sprayed with the preparation of active compound at the stated application rate. After the spray coating has dried on, the plants are inoculated with an aqueous spore suspension of Plasmopara viticola and then remain in an incubation cabin at 20° C. and 100% relative atmospheric humidity for 1 day. The plants are then placed in a greenhouse at about 21° C. and about 90% atmospheric humidity for 4 days. The plants are then moistened and placed in an incubation cabin for 1 day.

[14] = system: apple scab pathogen Venturia inaequalis; assay: Venturia test (apple)/protective; assay type: in vivo; details: protective, 100 g/ha, evaluation 10 days after inoculation
Experimental: Venturia Test (Apple)/Protective Solvents: 24.5 parts by weight of acetone • 24.5 parts by weight of dimethylacetamide Emulsifier: 1.0 part by weight of alkylaryl polyglycol ether To produce a suitable preparation of active compound, 1 part by weight of active compound is mixed with the stated amounts of solvent and emulsifier, and the concentrate is diluted with water to the desired concentration. To test for protective activity, young plants are sprayed with the preparation of active compound at the stated application rate. After the spray coating has dried on, the plants are inoculated with an aqueous conidia suspension of the apple scab pathogen Venturia inaequalis and then remain in an incubation cabin at about 20° C. and 100% relative atmospheric humidity for 1 day. The plants are then placed in a greenhouse at about 21° C. and a relative atmospheric humidity of about 90%.

[15] = system: Amaranthus; assay: Post-emergence test (greenhouse); assay type: in vivo; details: 250 g ai/ha, after three weeks
Experimental: as §2, §3, §4, §5, §6, §7

SMILES	log P [1]	Kill rate in % after 7 d ([2]; 500 ppm)	Kill rate in % after 6 d [3]	Kill rate in % after 7 d ([4]; 500 ppm)	Kill rate in % after 7 d [5]	degree of damage to the plants in % damage [6]	degree of damage to the plants in % damage [7]	degree of damage to the plants in % damage [8]	degree of damage to the plants in % damage [9]	other results
CCOC1CCC2(CC1)OC(=O)C(Cl)(c1c(C)cc(-c3ccc(Cl)cc3)cc1CC)C2=O (stereo not shown) [I-2-13]	log P 5.59	–	–	–	–	–	–	–	–	–
Cc1ccc(-c2ccc(Cl)cc2)cc1C1(Cl)C(=O)SC2(CCCCC2)C1=O (stereo not shown) [Ex. I-3-1]	–	100%	–	–	–	–	–	–	–	–
Cc1cc(C)c(C2(Cl)C(=O)NC3(CCCOC3)C2=O)cc1-c1ccc(Cl)cc1 (stereo not shown) [Ex. I-1-7]	–	100%	100%	100%	98%	90%	95%	100%	100%	–
Cc1ccc(-c2cccc(Cl)c2)cc1C1(Cl)C(=O)NC(C)(C)C1=O (stereo not shown) [Ex. I-1-3]	–	100%	–	–	–	–	–	–	–	–
Cc1ccc(-c2ccc(Cl)cc2)cc1C1(Cl)C(=O)NC(C)(C(C)C)C1=O (stereo not shown) [Ex. I-1-11]	–	100%	–	100%	99%	95%	90%	100%	100%	Kill rate in % after 7 d [10]: 100%; Kill rate in % after 7 d [11]: 90%; degree of damage to the plants in % damage [12]: 0%; % efficacy [13]: 100%; % efficacy [14]: 100%
Cc1cc(C)c(C2(Cl)C(=O)NC3(CCOCC3)C2=O)cc1-c1ccc(Cl)cc1 (stereo not shown) [Ex. I-1-6]	–	100%	98%	100%	99%	70%	100%	100%	95%	degree of damage to the plants in % damage [15]: 70%; % efficacy [13]: 94%; % efficacy [14]: 99%
Cc1ccc(-c2ccc(Cl)c(Cl)c2)cc1C1(Cl)C(=O)NC(C)(C)C1=O (stereo not shown) [Ex. I-1-15]	–	100%	95%	100%	99%	–	–	–	–	Kill rate in % after 7 d [10]: 100%; Kill rate in % after 7 d [11]: 100%
CCc1ccc(-c2ccc(Cl)cc2)cc1C1(Cl)C(=O)OC(C)(C)C1=O (stereo not shown) [I-2-7]	log P 5.05	–	–	–	–	–	–	–	–	–
Cc1cc(-c2ccc(Cl)cc2)cc(C)c1C1(Cl)C(=O)OC2(CCCOC2)C1=O (stereo not shown) [I-2-17]	log P 4.91	–	–	–	–	–	–	–	–	–
Cc1ccc(-c2ccc(Cl)cc2)cc1C1(Cl)C(=O)NC2(CCOCC2)C1=O (stereo not shown) [Ex. I-1-14]	–	100%	100%	100%	99%	80%	100%	100%	100%	degree of damage to the plants in % damage [12]: 0%; % efficacy [13]: 100%
Cc1ccc(-c2ccc(Cl)cc2)cc1C1(Cl)C(=O)OC(C)(C)C1=O (stereo not shown) [Ex. I-2-1]	–	–	–	–	98%	–	–	–	–	Kill rate in % after 7 d ([2]; 1000 ppm): 100%; Kill rate in % after 7 d ([4]; 1000 ppm): 100%; chromatographic logP ([1]; pH 2.5): 4.8
COC1CCC2(CC1)NC(=O)C(Cl)(c1cc(-c3ccc(Cl)c(Cl)c3)ccc1C)C2=O (stereo not shown) [Ex. I-1-13]	–	100%	100%	100%	95%	95%	90%	100%	90%	Kill rate in % after 7 d [10]: 100%; Kill rate in % after 7 d [11]: 100%; % efficacy [13]: 94%
Cc1cc(-c2ccc(Cl)cc2)cc(C)c1C1(Cl)C(=O)OC(C)(C)C1=O (stereo not shown) [I-2-14]	log P 5.11	–	–	–	–	–	–	–	–	–
Cc1ccc(-c2cccc(F)c2)cc1C1(Cl)C(=O)OC(C)(C)C1=O (stereo not shown) [I-2-11]	log P 4.30	–	–	–	–	–	–	–	–	–
COC1CCC2(CC1)NC(=O)C(Cl)(c1cc(-c3cccc(Cl)c3)ccc1Cl)C2=O (stereo not shown) [Ex. I-1-12]	–	100%	–	100%	100%	–	–	–	–	Kill rate in % after 7 d [10]: 100%; % efficacy [13]: 94%
CCOC1CCC2(CC1)NC(=O)C(Cl)(c1c(C)cc(-c3ccc(Cl)cc3)cc1Cl)C2=O (stereo not shown) [Ex. I-1-9]	–	100%	95%	–	–	95%	100%	100%	100%	–
Cc1cc(C)c(C2(Cl)C(=O)OC3(CCCC3)C2=O)cc1-c1ccc(Cl)cc1 (stereo not shown) [I-2-6]	log P 5.56	–	–	–	–	–	–	–	–	–
Cc1ccc(-c2ccc(Cl)cc2)cc1C1(Cl)C(=O)OC(C)(C(C)C)C1=O (stereo not shown) [I-2-5]	log P 5.61	–	–	–	–	–	–	–	–	–
